Measured values taken from US11427549B2, “Pyrimidinyloxy benzo-fused compounds as herbicides” (FMC Corporation, priority 2017, dated 2022).

Tests used:
kochia (Kochia scoparia) [1] = experiment: Test A postemergence, kochia; type: in vivo; conditions: Bassia scoparia, post-emergence, 240 h, 0 to 100 scale (0 no effect, 100 complete control), read-out: Plant response rating, Kochia
[2] = tested on: pigweed (Amaranthus retroflexus); experiment: Test A preemergence, pigweed; type: in vivo; conditions: Amaranthus retroflexus, pre-emergence, 240 h, 0 to 100 scale (0 no effect, 100 complete control), read-out: Plant response rating, Pigweed
[3] = tested on: wheat (Triticum aestivum); experiment: Test A postemergence, wheat; type: in vivo; conditions: Triticum aestivum, post-emergence, 240 h, 0 to 100 scale (0 no effect, 100 complete control), read-out: Plant response rating, Wheat
[4] = tested on: ryegrass, Italian (Italian ryegrass, Lolium multiflorum); experiment: Test A preemergence, ryegrass, Italian; type: in vivo; conditions: Lolium multiflorum, pre-emergence, 240 h, 0 to 100 scale (0 no effect, 100 complete control), read-out: Plant response rating, Ryegrass, Italian
[5] = tested on: ryegrass, Italian (Italian ryegrass, Lolium multiflorum); experiment: Test A postemergence, ryegrass, Italian; type: in vivo; conditions: Lolium multiflorum, post-emergence, 240 h, 0 to 100 scale (0 no effect, 100 complete control), read-out: Plant response rating, Ryegrass, Italian
[6] = tested on: barnyardgrass (Echinochloa crus-galli); experiment: Test A postemergence, barnyardgrass; type: in vivo; conditions: Echinochloa crus-galli, post-emergence, 240 h, 0 to 100 scale (0 no effect, 100 complete control), read-out: Plant response rating, Barnyardgrass
[7] = tested on: barnyardgrass (Echinochloa crus-galli); experiment: Test A preemergence, barnyardgrass; type: in vivo; conditions: Echinochloa crus-galli, pre-emergence, 240 h, 0 to 100 scale (0 no effect, 100 complete control), read-out: Plant response rating, Barnyardgrass
[8] = tested on: ragweed (common ragweed, Ambrosia elatior); experiment: Test A preemergence, ragweed; type: in vivo; conditions: Ambrosia artemisiifolia, pre-emergence, 240 h, 0 to 100 scale (0 no effect, 100 complete control), read-out: Plant response rating, Ragweed
[9] = tested on: barnyardgrass (Echinochloa crus-galli); experiment: Test B flooded paddy test, barnyardgrass; conditions: Echinochloa crus-galli, read-out: Plant response rating, Barnyardgrass (0 to 100 scale, 0 is no effect, 100 is complete control)
[10] = tested on: ducksalad (Heteranthera limosa); experiment: Test B flooded paddy test, ducksalad; conditions: Heteranthera limosa, read-out: Plant response rating, Ducksalad (0 to 100 scale, 0 is no effect, 100 is complete control)
corn (Zea mays) = experiment: Test A postemergence, corn; type: in vivo; conditions: Zea mays, post-emergence, 240 h, 0 to 100 scale (0 no effect, 100 complete control)
[11] = tested on: foxtail, green (green foxtail, Setaria viridis); experiment: Test A preemergence, foxtail, green; type: in vivo; conditions: Setaria, pre-emergence, 240 h, 0 to 100 scale (0 no effect, 100 complete control), read-out: Plant response rating, Foxtail, Green
Text: Seeds of plant species selected from barnyardgrass (Echinochloa crus-galli), kochia (Kochia scoparia), ragweed (common ragweed, Ambrosia elatior), ryegrass, Italian (Italian ryegrass, Lolium multiflorum), foxtail, giant (giant foxtail, Setaria faberii), foxtail, green (green foxtail, Setaria viridis) and pigweed (Amaranthus retroflexus) were planted into a blend of loam soil and sand and treated preemergence with a directed soil spray using test chemicals formulated in a non-phytotoxic solvent mixture which included a surfactant.
At the same time, plants selected from these weed species and also wheat (Triticum aestivum), corn (Zea mays), blackgrass (Alopecurus myosuroides), and galium (catchweed bedstraw, Galium aparine) were planted in pots containing the same blend of loam soil and sand and treated with postemergence applications of test chemicals formulated in the same manner. Plants ranged in height from 2 to 10 cm and were in the one- to two-leaf stage for the postemergence treatment. Treated plants and untreated controls were maintained in a greenhouse for approximately 10 days, after which time all treated plants were compared to untreated controls and visually evaluated for injury. […] A dash (-) response means no test result.

[12] = tested on: pigweed (Amaranthus retroflexus); experiment: Test A postemergence, pigweed; type: in vivo; conditions: Amaranthus retroflexus, post-emergence, 240 h, 0 to 100 scale (0 no effect, 100 complete control), read-out: Plant response rating, Pigweed
[13] = tested on: ragweed (common ragweed, Ambrosia elatior); experiment: Test A postemergence, ragweed; type: in vivo; conditions: Ambrosia artemisiifolia, post-emergence, 240 h, 0 to 100 scale (0 no effect, 100 complete control), read-out: Plant response rating, Ragweed
[14] = tested on: galium (catchweed bedstraw, Galium aparine); experiment: Test A postemergence, galium; type: in vivo; conditions: Galium, post-emergence, 240 h, 0 to 100 scale (0 no effect, 100 complete control), read-out: Plant response rating, Galium
rice (Oryza sativa) = experiment: Test B flooded paddy test, rice; conditions: Oryza sativa, read-out: Plant response rating, Rice (0 to 100 scale, 0 is no effect, 100 is complete control)
[15] = tested on: blackgrass (Alopecurus myosuroides); experiment: Test A postemergence, blackgrass; type: in vivo; conditions: Alopecurus myosuroides, post-emergence, 240 h, 0 to 100 scale (0 no effect, 100 complete control), read-out: Plant response rating, Blackgrass
kochia (Kochia scoparia) [16] = experiment: Test A preemergence, kochia; type: in vivo; conditions: Bassia scoparia, pre-emergence, 240 h, 0 to 100 scale (0 no effect, 100 complete control), read-out: Plant response rating, Kochia

O=C1OC(CCCC(F)(F)F)c2c(Oc3ncc(Cl)cn3)cccc21 (stereo not drawn) [Compound 1, 4-[(5-Chloro-2-pyrimidinyl)oxy]-3-(4,4,4-trifluorobutyl)-1(3H)-isobenzofuranone]
pest or weed control at 125 g/ha (kochia (Kochia scoparia) [1]; 125 g ai/ha): 100%
pest or weed control at 500 g/ha (kochia (Kochia scoparia) [1]; 500 g ai/ha): 100%
pest or weed control at 125 g/ha ([2]; 125 g ai/ha): 100%
pest or weed control at 500 g/ha ([2]; 500 g ai/ha): 100%
plant injury at 125 g/ha ([3]; 125 g ai/ha): 30%
plant injury at 500 g/ha ([3]; 500 g ai/ha): 80%
pest or weed control at 125 g/ha ([4]; 125 g ai/ha): 80%
pest or weed control at 500 g/ha ([4]; 500 g ai/ha): 100%
pest or weed control at 125 g/ha ([5]; 125 g ai/ha): 50%
pest or weed control at 500 g/ha ([5]; 500 g ai/ha): 80%
pest or weed control at 125 g/ha ([6]; 125 g ai/ha): 70%
pest or weed control at 500 g/ha ([6]; 500 g ai/ha): 80%
pest or weed control at 125 g/ha ([7]; 125 g ai/ha): 100%
pest or weed control at 500 g/ha ([7]; 500 g ai/ha): 100%
pest or weed control at 125 g/ha ([8]; 125 g ai/ha): 80%
pest or weed control at 500 g/ha ([8]; 500 g ai/ha): 90%
pest or weed control at 250 g/ha [9]: 0%
pest or weed control at 250 g/ha [10]: 20%
Corn plant response rating (crop injury, 0 = no effect, 100 = complete kill) at 125 g/ha (corn (Zea mays); 125 g ai/ha): 40%
Corn plant response rating (crop injury, 0 = no effect, 100 = complete kill) at 500 g/ha (corn (Zea mays); 500 g ai/ha): 60%
pest or weed control at 125 g/ha ([11]; 125 g ai/ha): 100%
pest or weed control at 500 g/ha ([11]; 500 g ai/ha): 100%
pest or weed control at 125 g/ha ([12]; 125 g ai/ha): 100%
pest or weed control at 500 g/ha ([12]; 500 g ai/ha): 100%
pest or weed control at 125 g/ha ([13]; 125 g ai/ha): 10%
pest or weed control at 500 g/ha ([13]; 500 g ai/ha): 40%
pest or weed control at 125 g/ha ([14]; 125 g ai/ha): 100%
pest or weed control at 500 g/ha ([14]; 500 g ai/ha): 100%
plant injury at 250 g/ha (rice (Oryza sativa)): 0%
pest or weed control at 125 g/ha ([15]; 125 g ai/ha): 40%
pest or weed control at 500 g/ha ([15]; 500 g ai/ha): 100%
pest or weed control at 125 g/ha (kochia (Kochia scoparia) [16]; 125 g ai/ha): 100%
pest or weed control at 500 g/ha (kochia (Kochia scoparia) [16]; 500 g ai/ha): 100%
